Values of other authors as cited in PMC6329039 (Molecular Pain, 2019).

Tested on: STAT3
Details: thermal shift assays ref 33

SMILES: CN(CC(=O)N(Cc1ccc(C2CCCCC2)cc1)c1ccc(C(=O)O)c(O)c1)S(=O)(=O)c1c(F)c(F)c(F)c(F)c1F [BP-1–102]
- binding to and degradation of STAT3: specifically bind to and induce the degradation of STAT3
